Reference: patent publication US20080181882A1, “Neurgulin 1 (NRG1) - ErbB4 signaling as a target for the treatment of schizophrenia” (The University of Pennsylvania, priority 2006, published 2008)
“Also recorded” adds a separate entry of the source. Values belong to the molecule of their own block, whether it stands above or below them.

How the values were obtained:
erbB4 [1] = biological target: T1, erbB4 (Homo sapiens, UniProt Q15303); experiment: NRG1 stimulation-induced erbB4 tyrosine phosphorylation in postmortem brain tissue (erbB4 IP, phosphotyrosine immunoblot); type: cell-based; conditions: postmortem PFC tissue stimulated 37° C. 30 min; NRG1-GST or GST 200 ng/ml; NMDA 10 μM + 1 μM glycine
T1 construct: Postmortem PFC tissues were gradually thawed and sliced using a McIlwain tissue chopper; from tissue; host or cells: postmortem human prefrontal cortex (Brodmann areas 9, 10 and/or 46), schizophrenic and control subjects
T1 sequence (Q15303 26-1308): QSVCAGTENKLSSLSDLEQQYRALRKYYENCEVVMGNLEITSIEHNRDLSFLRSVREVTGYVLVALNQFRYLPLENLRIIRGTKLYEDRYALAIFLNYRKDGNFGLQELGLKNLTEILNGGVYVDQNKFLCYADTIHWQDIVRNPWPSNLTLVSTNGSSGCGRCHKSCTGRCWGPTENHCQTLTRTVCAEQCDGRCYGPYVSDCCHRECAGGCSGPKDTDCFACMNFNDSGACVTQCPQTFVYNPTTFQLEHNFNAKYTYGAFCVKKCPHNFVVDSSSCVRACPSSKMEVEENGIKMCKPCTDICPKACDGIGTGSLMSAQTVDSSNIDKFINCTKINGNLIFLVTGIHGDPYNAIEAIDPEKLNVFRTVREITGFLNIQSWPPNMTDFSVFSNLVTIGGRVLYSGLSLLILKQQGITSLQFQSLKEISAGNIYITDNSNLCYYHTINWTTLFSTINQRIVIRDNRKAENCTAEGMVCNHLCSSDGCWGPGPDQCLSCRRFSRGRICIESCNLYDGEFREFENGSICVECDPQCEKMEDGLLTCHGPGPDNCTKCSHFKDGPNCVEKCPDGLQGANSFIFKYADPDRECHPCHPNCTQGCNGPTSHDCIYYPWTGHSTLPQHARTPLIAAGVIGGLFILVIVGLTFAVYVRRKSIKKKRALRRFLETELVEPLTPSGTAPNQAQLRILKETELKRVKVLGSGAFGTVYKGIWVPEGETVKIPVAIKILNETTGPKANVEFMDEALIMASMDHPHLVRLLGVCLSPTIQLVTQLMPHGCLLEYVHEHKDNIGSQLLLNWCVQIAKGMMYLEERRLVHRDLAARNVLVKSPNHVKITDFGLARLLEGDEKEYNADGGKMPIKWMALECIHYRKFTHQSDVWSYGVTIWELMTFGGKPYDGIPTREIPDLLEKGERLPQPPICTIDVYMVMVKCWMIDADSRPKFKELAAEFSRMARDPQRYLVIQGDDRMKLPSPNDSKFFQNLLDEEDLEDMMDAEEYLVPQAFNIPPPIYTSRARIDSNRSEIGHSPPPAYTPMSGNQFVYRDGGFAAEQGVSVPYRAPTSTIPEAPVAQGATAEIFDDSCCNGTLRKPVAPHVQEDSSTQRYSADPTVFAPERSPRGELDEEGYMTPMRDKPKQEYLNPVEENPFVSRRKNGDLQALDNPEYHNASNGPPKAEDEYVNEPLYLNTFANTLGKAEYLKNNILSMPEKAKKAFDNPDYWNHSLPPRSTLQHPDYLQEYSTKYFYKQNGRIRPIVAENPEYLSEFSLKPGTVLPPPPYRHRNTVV
Procedure: Postmortem PFC tissues were gradually thawed and sliced using a McIlwain tissue chopper (200 μm×200 μm×3 mm). Tissue slices ([…]) were suspended in ice-cold Krebs-Ringer solution containing 118 mM NaCl, 4.8 mM KCl, 1.3 mM CaCl2, 1.2 mM KH2 PO4, 1.2 mM MgSO4, 25 mM NaHCO3, 10 mM glucose, 100 μM ascorbic acid, […] leupeptin, 0.2 mM PMSF, 25 μg/ml pepstatin A and 0.01 U/ml soybean trypsin inhibitor (pH 7.4). We incubated ˜20 mg of tissue with Krebs-Ringer solution containing either 200 ng/ml GST fusion protein or a mixture of neuregulin-1α-GST and neuregulin-1β-GST (200 ng/ml each), at 37° C. for 30 min. During stimulation, the incubation mixture was aerated with 95% O2, 5% CO2 every 10 min for 1 min. Ligand stimulation was terminated by adding of 1 ml ice-cold Ca^2+-free Krebs-Ringer solution containing 0.5 mM EGTA. Tissue slices were harvested by a brief centrifugation and homogenized in 0.25 ml ice-cold immunoprecipitation buffer (same make-up as homogenization buffer described above). The homogenates was centrifuged at 800 g for 10 min and the supernatant sonicated for 10 s. The proteins were solubilized in 0.5% digitonin, 0.2% sodium cholate and 0.5% NP-40 for 60 min. Lysates were cleared by centrifugation at 50,000 g for 5 min and diluted with 0.75 ml of immunoprecipitation buffer. Protein concentrations were determined using the Bradford method (Bio-Rad). […]

erbB4 [2] = experiment: NRG1-induced erbB4 activation in PFC slices of mice after chronic haloperidol treatment; type: in vivo, mouse; conditions: chronic haloperidol implant, 12 weeks
Procedure: (A) […] slices of PFCs of control and haloperidol treated mice were incubated with or without NRG 1 for 30 min. Tissue lysates were immunoprecipitated for erbB4 and were probed with antiphosphotyrosine or anti-erbB4. (B) Densitometric analysis of erbB4 activation in (A). Graph constructed for the ratios of the intensities for pY-erbB4 over erbB4 for control and haloperidol treated mice. NRG1 induced tyrosine phosphorylation was attenuated in haloperidol treated mice (t(6)=[…]);
(§1) Adult CH3 mice were implanted with a Medisorb bioabsorbable polymer disc (Alkermes Inc.), fabricated with haloperidol (n=7) or polymer vehicle only (n=7). These implants were previously shown to release haloperidol for at least 5 months with a calculated release rate of approximately 2 mg/kg per day. After 12 weeks of treatment, mice were sacrificed and the pooled serum haloperidol concentration was measured. Animal experiments were approved by the Institutional and Animal Care and Use Committee of the University of Pennsylvania.
To assess potential confounding effects of demographic or clinical variables, the levels of NRG1 and erbB4 isoforms were assessed, as well as the activation of erbB4, ERK and AKT, for correlations with sex, age, brain pH, postmortem interval and, for the schizophrenia group, exposure to an antipsychotic drug 1 month before death. No significant correlations were found. […]

[3] = Serum haloperidol concentration in implanted mice; type: in vivo; conditions: CH3, mouse, other: implanted bioabsorbable polymer disc, pooled serum, mice with haloperidol implant
Procedure: as §1

Molecule: CN[C@H](CC(=O)O)C(=O)O [NMDA, N-methyl-Daspartate]
tyrosine phosphorylation of erbB4 (erbB4 [1]): did not enhance

concentration at 12 weeks [3]: 3.1 ng/mL
Molecule: O=C(CCCN1CCC(O)(c2ccc(Cl)cc2)CC1)c1ccc(F)cc1 [haloperidol]
NRG1-induced erbB4 activation (pY-erbB4 over erbB4), haloperidol treated vs vehicle mice (erbB4 [2]): significantly reduced; also recorded: attenuated

tyrosine phosphorylation of erbB4 (erbB4 [1]): Neither enhanced
B1: BDNF: another trophic factor for a different tyrosine kinase receptor (protein, UniProt P23560 19-247, looked up)
Neurotrophic factor BDNF …: APMKEANIRGQGGLAYPGVRTHGTLESVNGPKAGSRGLTSLADTFEHVIEELLDEDQKVRPNEENNKDADLYTSRVMLSSQVPLEPPLLFLLEEYKNYLDAANMSMRVRRHSDPARRGELSVCDSISEWVTAADKKTAVDMSGGTVTVLEKVPVSKGQLKQYFYETKCNPMGYTKEGCRGIDKRHWNSQCRTTQSYVRALTMDSKKRIGWRFIRIDTSCVCTLTIKRGR
